Measurements: ChEMBL document CHEMBL1201862, “PubChem BioAssay data set” (2004)
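Where inhibition never reached the appropriate level, the endpoint shown equals the highest concentration tested. Otherwise, values were interpolated linearly from a five-concentration, 48-hour dose response in 96-well plates. GI50: concentration for 50% inhibition of growth.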 The source made the active and inactive calls. Rule as the data show it: active = GI50 up to about 1.1 µM and inactive = higher.

Legend:
Experiment in all cases: NCI tumour cell line growth inhibition, 48 h
A549 = test system: A549
CAKI-1 = test system: CAKI-1
HCC 2998 = test system: HCC 2998
HL-60 = test system: HL-60
LXFL 529 = test system: LXFL 529
Malme-3M = test system: Malme-3M
NCI-H226 = test system: NCI-H226
OVCAR-5 = test system: OVCAR-5
RXF 393 = test system: RXF 393
TK-10 = test system: TK-10
UACC-257 = test system: UACC-257
UO-31 = test system: UO-31
CCRF-CEM = test system: CCRF-CEM
HCT-15 = test system: HCT-15
HOP-92 = test system: HOP-92
BT-549 = test system: BT-549
DU-145 = test system: DU-145
MCF7 = test system: MCF7
MDA-MB-231 = test system: MDA-MB-231
SR = test system: SR

SMILES | GI50 (A549) | GI50 (CAKI-1) | GI50 (HCC 2998) | GI50 (HL-60) | GI50 (LXFL 529) | GI50 (Malme-3M) | GI50 (NCI-H226) | GI50 (OVCAR-5) | GI50 (RXF 393) | GI50 (TK-10) | GI50 (UACC-257) | GI50 (UO-31) | GI50 (CCRF-CEM) | GI50 (HCT-15) [µM] | GI50 (HOP-92) | GI50 (BT-549) | GI50 (DU-145) | GI50 (MCF7) | GI50 (MDA-MB-231) | GI50 (SR)
CC1=C(O)/C(=C/C(C)CCC/C(C)=C/C=C/C(C)CCCc2ccoc2)OC1=O (stereo not given) | 27.2 µM (inactive) | 45.5 µM (inactive) | 23 µM (inactive) | 24.7 µM (inactive) | 31.8 µM (inactive) | 10.1 µM (inactive) | 23.2 µM (inactive) | 23.8 µM (inactive) | 24.7 µM (inactive) | 20.9 µM (inactive) | 21.7 µM (inactive) | 69.2 µM (inactive) |  |  |  |  |  |  |  | 
CN(C)c1n/c(=N/c2ccc3c(c2)OCO3)ss1 | 44.6 µM (inactive) | 97.7 µM (inactive) | 44.4 µM (inactive) | 19 µM (inactive) | 35.3 µM (inactive) | > 100 µM (inactive) | > 100 µM (inactive) | > 100 µM (inactive) | 96.4 µM (inactive) | > 100 µM (inactive) | > 100 µM (inactive) | 27.2 µM (inactive) | 32.5 µM (inactive) | 40.4 | 56.5 µM (inactive) |  |  |  |  | 
O/N=C1/C(=C/c2ccc3c(c2)OCO3)CCCC1C(NO)c1ccc2c(c1)OCO2 (stereo not given) | 29.9 µM (inactive) | 28.6 µM (inactive) | 25 µM (inactive) | 15.9 µM (inactive) | 20 µM (inactive) | 22 µM (inactive) |  |  | 23.6 µM (inactive) | 26.1 µM (inactive) | 17.8 µM (inactive) | 23.4 µM (inactive) | 19.2 µM (inactive) | 32 |  |  |  |  |  | 
CSc1nc(NC2OCC(OC(C)=O)C(OC(C)=O)C2OC(C)=O)c2c(n1)OCC2=O (stereo not given) | > 100 µM (inactive) | > 100 µM (inactive) | > 100 µM (inactive) | > 100 µM (inactive) | > 100 µM (inactive) | > 100 µM (inactive) | > 100 µM (inactive) | > 100 µM (inactive) | > 100 µM (inactive) | > 100 µM (inactive) | > 100 µM (inactive) | > 100 µM (inactive) | > 100 µM (inactive) | > 100 |  |  |  |  |  | 
Nc1c(-c2cccc3ccccc23)c2ccc([N+](=O)[O-])cc2c(=O)n1-c1nc2ccccc2s1 | 3.32 µM (inactive) | 5.15 µM (inactive) | 7.14 µM (inactive) | 2.18 µM (inactive) |  | 3.58 µM (inactive) | 2.41 µM (inactive) | 14.3 µM (inactive) | 6.04 µM (inactive) | 4.42 µM (inactive) | 3.41 µM (inactive) | 4.1 µM (inactive) | 1.33 µM (inactive) | 6.38 | 3.23 µM (inactive) | 14.3 µM (inactive) | 7.57 µM (inactive) | 1.5 µM (inactive) | 5.37 µM (inactive) | 12.5 µM (inactive)
C[N+](C)(C)CC1CCCC(C[N+](C)(C)C)C1=NO (stereo not given) | > 100 µM (inactive) | > 100 µM (inactive) |  |  | > 100 µM (inactive) | > 100 µM (inactive) | > 100 µM (inactive) | > 100 µM (inactive) | > 100 µM (inactive) | > 100 µM (inactive) | > 100 µM (inactive) | > 100 µM (inactive) |  | > 100 |  |  |  |  |  | > 100 µM (inactive)
O=C1c2cc([N+](=O)[O-])sc2C(=O)c2ccsc21 | 1.83 µM (inactive) | 1.24 µM (inactive) | 0.52 µM (active) | < 0.01 µM (active) |  | 0.164 µM (active) | 1.36 µM (inactive) | 1.69 µM (inactive) | 0.486 µM (active) | 0.774 µM (active) | 0.242 µM (active) | 1.2 µM (inactive) | 0.075 µM (active) | 0.284 | 0.201 µM (active) | 0.438 µM (active) | 0.273 µM (active) | 0.213 µM (active) | 0.266 µM (active) | < 0.0129 µM (active)
CN(C)CCCNc1ccc2ncn3c4ccccc4c(=O)c1c23 |  |  |  | 6.41 µM (inactive) | 8.55 µM (inactive) | 13.7 µM (inactive) | 7.21 µM (inactive) | 10.7 µM (inactive) |  | 14.8 µM (inactive) | 14.6 µM (inactive) | 9.27 µM (inactive) | 4.39 µM (inactive) | 8.53 | 5.9 µM (inactive) |  |  |  |  | 2.94 µM (inactive)
N/C(=N\c1ccc(Cl)cc1)c1ccccc1N | > 100 µM (inactive) | > 100 µM (inactive) | > 100 µM (inactive) | > 100 µM (inactive) |  | > 100 µM (inactive) | > 100 µM (inactive) | > 100 µM (inactive) | > 100 µM (inactive) | > 100 µM (inactive) | > 100 µM (inactive) | > 100 µM (inactive) | > 100 µM (inactive) | > 100 | 3.82 µM (inactive) | > 100 µM (inactive) | > 100 µM (inactive) | > 100 µM (inactive) | > 100 µM (inactive) | > 100 µM (inactive)
C=C1CCC2C(C)(CO)C(O)CCC2(C)C1C/C=C1/CCOC1=O (stereo not given) | > 100 µM (inactive) | > 100 µM (inactive) | > 100 µM (inactive) | > 100 µM (inactive) | > 100 µM (inactive) | > 100 µM (inactive) | > 100 µM (inactive) | > 100 µM (inactive) |  | > 100 µM (inactive) | > 100 µM (inactive) | > 100 µM (inactive) | > 100 µM (inactive) | > 100 | > 100 µM (inactive) |  |  |  |  | > 100 µM (inactive)
CC1c2[nH]c3ccccc3c2CCN1O (stereo not given) | > 100 µM (inactive) | > 100 µM (inactive) | > 100 µM (inactive) | > 100 µM (inactive) | > 100 µM (inactive) | > 100 µM (inactive) | 23.1 µM (inactive) | > 100 µM (inactive) | > 100 µM (inactive) | > 100 µM (inactive) | > 100 µM (inactive) | 29.4 µM (inactive) | > 100 µM (inactive) | > 100 | > 100 µM (inactive) |  |  |  |  | 
O=C(O)CN(c1ccccc1)S(=O)(=O)c1cccc([N+](=O)[O-])c1 | > 100 µM (inactive) | > 100 µM (inactive) |  | > 100 µM (inactive) | > 100 µM (inactive) | > 100 µM (inactive) | > 100 µM (inactive) | > 100 µM (inactive) | > 100 µM (inactive) | > 100 µM (inactive) | > 100 µM (inactive) | > 100 µM (inactive) | > 100 µM (inactive) | > 100 | > 100 µM (inactive) |  |  |  |  | 
CCOc1ccc(/N=C\c2ccc3cc(C)ccc3n2)cc1 | > 100 µM (inactive) | 36.9 µM (inactive) | 33.2 µM (inactive) | 19.5 µM (inactive) | 30.5 µM (inactive) | > 100 µM (inactive) | > 100 µM (inactive) | > 100 µM (inactive) | 91 µM (inactive) | 79.3 µM (inactive) | 76 µM (inactive) | 31 µM (inactive) | 22.5 µM (inactive) | 41.8 | 66.8 µM (inactive) |  |  |  |  | 
CN1N(c2ccccc2)C(=O)C2=NC=C(C(=O)c3ccccc3)C(=N)C21C (stereo not given) | > 100 µM (inactive) | > 100 µM (inactive) | > 100 µM (inactive) | > 100 µM (inactive) |  | > 100 µM (inactive) | > 100 µM (inactive) | > 100 µM (inactive) | > 100 µM (inactive) | > 100 µM (inactive) | > 100 µM (inactive) | > 100 µM (inactive) | > 100 µM (inactive) | > 100 | > 100 µM (inactive) | > 100 µM (inactive) | > 100 µM (inactive) | > 100 µM (inactive) | > 100 µM (inactive) | > 100 µM (inactive)
COc1cc2c(cc1[N+](=O)[O-])C(=O)C(Br)(Br)CCC2 | 4.37 µM (inactive) | 2.92 µM (inactive) | 14 µM (inactive) | 3.22 µM (inactive) |  | 2.13 µM (inactive) | 3.47 µM (inactive) | 1.91 µM (inactive) | 1.93 µM (inactive) | 2.54 µM (inactive) | 13.6 µM (inactive) | 1.61 µM (inactive) | 0.101 µM (active) | 1.66 | 4.46 µM (inactive) | 2.12 µM (inactive) | 7.18 µM (inactive) | 2.22 µM (inactive) | 3.05 µM (inactive) | 0.743 µM (active)
Clc1nc(Cl)c(Cl)c(Cl)n1 | 19.8 µM (inactive) | 17.8 µM (inactive) | 18.7 µM (inactive) | 13.5 µM (inactive) |  | 16 µM (inactive) | 20.7 µM (inactive) | 20.5 µM (inactive) | 18.3 µM (inactive) | 20.9 µM (inactive) | 16.3 µM (inactive) | 24.5 µM (inactive) | 5.15 µM (inactive) | 19.1 | 25.5 µM (inactive) | 20.6 µM (inactive) | 16.7 µM (inactive) | 15.8 µM (inactive) | 18 µM (inactive) | 5.96 µM (inactive)
COC(=O)C1Cc2c(n(C)c3ccccc23)C(c2ccccc2)N1 (stereo not given) | > 100 µM (inactive) | > 100 µM (inactive) | 49.4 µM (inactive) | 10.1 µM (inactive) | 33.7 µM (inactive) | > 100 µM (inactive) | 22.6 µM (inactive) | > 100 µM (inactive) |  | > 100 µM (inactive) | 15.2 µM (inactive) | > 100 µM (inactive) | 52.1 µM (inactive) | 14.2 | > 100 µM (inactive) |  |  |  |  | 67.9 µM (inactive)
Cc1cn2c(=O)c3ncn(C4OC(CO)C(O)C4O)c3n(C)c2n1 (stereo not given) | > 100 µM (inactive) | > 100 µM (inactive) | > 100 µM (inactive) | > 100 µM (inactive) | > 100 µM (inactive) | > 100 µM (inactive) | > 100 µM (inactive) | > 100 µM (inactive) | > 100 µM (inactive) | > 100 µM (inactive) | > 100 µM (inactive) | > 100 µM (inactive) | > 100 µM (inactive) | > 100 | > 100 µM (inactive) |  |  |  |  | 
